Laboratory results taken from PubChem BioAssay AID2060510 (Molecular Pharmacology Branch, DTP, NCI, 2025).
pIC50: −log10 of the molar value. “And” between values parts separate entries of the source, which are not always exact repeats. Equal entries are not always repeated.

Tested on: 439559-082-T-J2-PDC spheroids viability
Test: Anticancer human tumor 439559-082-T-J2-PDC patient-derived colon adenocarcinoma cell line growth inhibition [GQUAD]
Conditions: for viability, T/C: stronger effect = lower value; active = viability on the fitted dose curve at most 10% of control; inactive = the rest
Description: DNA G-quadruplex Stabilizer Agents in Combinations in Complex Spheroids
A high-throughput screen of multi-cell type tumor spheroids was designed to identify active combinations of DNA G-quadruplex stabilizer agents and targeted small molecules. Complex spheroids include a stromal component modeled by human endothelial cells (HUVEC) and fibroblasts modeled by human mesenchymal stem cells (MSCs). The concentration ranges selected for each drug and investigational agent were based upon clinically achievable concentrations if the clinical Cmax of the agent was known.
Compounds. The drugs and investigational agents: pidnarulex (CX-5461; NSC782164), APTO-253 (NSC789042), BRACO-19 (NSC847499), peposertib (NSC802822), ceralasertib (NSC780249), elimusertib (NSC800525), camonsertib (NSC841442), AZD-1390 (NSC803789), olaparib (NSC753686), talazoparib (NSC767125), ART-558 (NSC835418), sotorasib (NSC818433), MRTX-1133 (NSC836407), SN-38 (NSC673596), topotecan (NSC609699), etoposide (NSC141540), doxorubicin (NSC123127), gemcitabine (NSC613327), 5-fluorouracil (NSC19893), paclitaxel (NSC125973), vemurafenib (NSC761431), panobinostat (NSC761190), R-306465 (JNJ-16241199; NSC773264), adavosertib (NSC754352), TP-3654 (NSC805149), carboplatin (NSC241240), KSQ-4279 (NSC840948), and staurosporine (NSC755774) were obtained from the National Cancer Institute (NCI) Developmental Therapeutics Program Chemical Repository (34). The FDA-approved anticancer drug set is available from the NCI Developmental Therapeutics Program. […] The stock solutions were prepared in dimethyl sulfoxide (DMSO, Sigma-Aldrich, St. Louis, MO, cat. D2650) at 800-fold the tested concentration and stored at -70 degrees C prior to their use. All drugs and investigational agents were tested over a range starting from a high concentration at or near the clinical Cmax and decreasing in half-log increments. If the clinical Cmax for an agent had not been determined, the highest concentration tested was 10 microM.
2.3 Cell Culture. All cells were maintained in an incubator at 37 degrees C and 5% CO2 with 95% humidity. The PDC lines were cultured according to standard operating procedures established by the NCI PDMR. All PDCs were thawed and cultured in Matrigel-coated flasks prepared with a working solution of 1X Ham's F-12 nutrient mix, without supplementation (Invitrogen, cat. 11765054), 100 U/mL penicillin-streptomycin (Invitrogen, cat. 15140122), and 2.5% Matrigel (Corning Inc., cat. 354248) for the first three passages. The 857933-349-R-J2-PDC line was cultured in 6C/Colon 1B media, which includes advanced DMEM/F-12 (Thermo Fisher Scientific, cat. 12634028), 10 mM HEPES (Thermo Fisher Scientific, cat. 15630080), 1X GlutaMAX supplement (Thermo Fisher Scientific, cat. 35050061), 0.1 mg/mL primocin (InvivoGen, cat. ant-pm-2), 10% defined fetal bovine serum, heat inactivated (HyClone Laboratories Inc., cat. SH30070.03HI), 50% L-WRN conditioned media (ATCC, cat. CRL-3276), 1.25 mM N-Acetyl-L-cysteine (Sigma-Aldrich, cat. A9165), 10 mM nicotinamide (Sigma-Aldrich, cat. N0636), 1X B-27 supplement (Thermo Fisher Scientific, cat. 17504044), 1X N-2 supplement (Thermo Fisher Scientific, cat. 17502048), 10 microM Y-27632 dihydrochloride (Tocris Bioscience, cat. 1254), and 50 ng/mL human EGF recombinant protein (Thermo Fisher Scientific, cat. PHG0311). The 485176-168-R4-J1-PDC line was cultured in Panc media, which includes all 6C/Colon 1B media components plus 100 ng/mL human FGF-10 (Thermo Fisher Scientific, cat. 100-26), 500 nM SB-431542 (Selleckchem, cat. S1067), and gastrin (Tocris, cat. 3006).
[…]
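Also: spheroids exposed to the agents for 7 days before readout.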
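For viability, T/C in this document: percent of luminescence signal in DMSO vehicle wells taken as 100% viability.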

C#Cc1c(F)ccc2cc(O)cc(-c3ncc4c(N5CC6CCC(C5)N6)nc(OCC56CCCN5CC(F)C6)nc4c3F)c12 (configuration not stated)
inactive: viability, T/C (compound 0.0316 µM) 96.1% and 98.3% and 86.1% | viability, T/C (compound 0.1 µM) 86.3% and 94.2% and 72.7% | viability, T/C (compound 0.316 µM) 76.8% and 90.2% and 62.7% | viability, T/C (compound 1 µM) 75.4% and 78.3% and 59.6% | viability, T/C (compound 3.16 µM) 60.6% and 9.56% and 49.7% | viability, T/C (compound 10 µM) 49% and 15.8% and 45.7%
5.01 and 5.79 and 5.44: pIC50 (curve of compound)

C=CC(=O)N1CCN(c2nc(=O)n(-c3c(C)ccnc3C(C)C)c3nc(-c4c(O)cccc4F)c(F)cc23)C(C)C1 (configuration not stated)
< 5.00: pIC50 (curve of compound)
inactive: viability, T/C (compound 0.0316 µM) 101% (2×) and 96.5% | viability, T/C (compound 0.1 µM) 101% and 91.7% and 89.6% | viability, T/C (compound 0.316 µM) 94.3% and 91.1% and 108% | viability, T/C (compound 1 µM) 110% and 96.3% and 112% | viability, T/C (compound 3.16 µM) 99% and 108% and 107% | viability, T/C (compound 10 µM) 98.8% and 96.6% and 105%

C=CCn1c(=O)c2cnc(Nc3ccc(N4CCN(C)CC4)cc3)nc2n1-c1cccc(C(C)(C)O)n1
inactive: viability, T/C (compound 0.0316 µM) 109% and 94.2% and 108% | viability, T/C (compound 0.1 µM) 91.1% and 90.4% and 90.3% | viability, T/C (compound 0.316 µM) 86.3% and 89.2% and 88% | viability, T/C (compound 1 µM) 104% and 78.4% and 93.7% | viability, T/C (compound 3.16 µM) 110% and 62.9% and 53.1% | viability, T/C (compound 10 µM) 43.5% and 20.1% and 21.9%
5.06 and 5.36 and 5.45: pIC50 (curve of compound)

CC(=O)O[C@H]1C(=O)[C@@]2(C)[C@H]([C@H](OC(=O)c3ccccc3)[C@]3(O)C[C@H](OC(=O)[C@H](O)[C@@H](NC(=O)c4ccccc4)c4ccccc4)C(C)=C1C3(C)C)[C@]1(OC(C)=O)CO[C@@H]1C[C@@H]2O
6.48 and 5.66 and 5.60: pIC50 (curve of compound)
inactive: viability, T/C (compound 0.0316 µM) 97.3% and 78.7% and 84.1% | viability, T/C (compound 0.1 µM) 75.3% (2×) and 83.1% | viability, T/C (compound 0.316 µM) 55.6% and 69.5% and 90.7%

CC(C)(O)C1CCC(Nc2ccc3ncc(-c4cccc(C(F)(F)F)c4)n3n2)CC1 (configuration not stated)
< 5.00 and 5.82 and 5.73: pIC50 (curve of compound)
inactive: viability, T/C (compound 0.0316 µM) 100% and 101% and 106% | viability, T/C (compound 0.1 µM) 76.5% and 92.8% and 98.9% | viability, T/C (compound 0.316 µM) 60.8% and 103% and 99.9% | viability, T/C (compound 1 µM) 57.9% and 71.8% and 90% | viability, T/C (compound 3.16 µM) 53.2% and 7.83% and 15.9% | viability, T/C (compound 10 µM) 49.5% and 12.5% and 13.8%

CC(C)n1c(=O)n(C)c2cnc3cc(F)c(-c4ccc(OCCCN5CCCCC5)nc4)cc3c21
< 5.00: pIC50 (curve of compound)
inactive: viability, T/C (compound 0.0316 µM) 110% and 92.9% and 102% | viability, T/C (compound 0.1 µM) 103% and 115% and 91.5% | viability, T/C (compound 0.316 µM) 117% and 111% and 110% | viability, T/C (compound 1 µM) 107% and 114% and 98.3% | viability, T/C (compound 3.16 µM) 116% and 117% and 110% | viability, T/C (compound 10 µM) 95.4% and 101% and 102%

CC1COCCN1c1cc(-c2ccnn2C)c2ccnc(-c3ccn[nH]3)c2n1 (configuration not stated)
6.55 and 6.72 and 6.66: pIC50 (curve of compound)
inactive: viability, T/C (compound 0.0316 µM) 97.7% and 97.6% and 93.5% | viability, T/C (compound 0.1 µM) 80.6% and 68.1% and 73.8% | viability, T/C (compound 0.316 µM) 46.8% and 35.7% and 39.2% | viability, T/C (compound 1 µM) 34.3% and 35.7% and 31.6% | viability, T/C (compound 3.16 µM) 37.7% and 30.7% and 31.6% | viability, T/C (compound 10 µM) 33.5% and 28.8% and 34%

CC1COCCN1c1cc(C2(O)CC3CCC(C2)O3)c2cnn(-c3ccn[nH]3)c2n1 (configuration not stated)
inactive: viability, T/C (compound 0.0316 µM) 88.9% and 93.8% and 110% | viability, T/C (compound 0.1 µM) 94.8% and 93.7% and 78.8% | viability, T/C (compound 0.316 µM) 68.1% and 75.7% and 73.3% | viability, T/C (compound 1 µM) 52.4% and 55.8% and 50.7% | viability, T/C (compound 3.16 µM) 39% and 40.9% and 32.5% | viability, T/C (compound 10 µM) 33.2% and 39.8% and 28.5%
5.99 and 5.82: pIC50 (curve of compound)

CC1COCCN1c1cc(C2(S(C)(=N)=O)CC2)nc(-c2ccnc3[nH]ccc23)n1 (configuration not stated)
< 5.00: pIC50 (curve of compound)
inactive: viability, T/C (compound 0.0316 µM) 97.7% and 98.8% and 96.5% | viability, T/C (compound 0.1 µM) 111% and 89.2% and 102% | viability, T/C (compound 0.316 µM) 93.4% and 106% and 88.7% | viability, T/C (compound 1 µM) 101% and 86.2% and 94% | viability, T/C (compound 3.16 µM) 92.3% and 87.4% and 80.1% | viability, T/C (compound 10 µM) 68.4% and 57.7% and 60.7%

CCCS(=O)(=O)Nc1ccc(F)c(C(=O)c2c[nH]c3ncc(-c4ccc(Cl)cc4)cc23)c1F
inactive: viability, T/C (compound 0.0316 µM) 96.1% and 95.7% and 105% | viability, T/C (compound 0.1 µM) 90.8% and 96.3% and 99.1% | viability, T/C (compound 0.316 µM) 94.7% and 102% and 103% | viability, T/C (compound 1 µM) 71.9% and 107% and 96.1% | viability, T/C (compound 3.16 µM) 53.8% and 108% and 106% | viability, T/C (compound 10 µM) 20.2% and 54.8% and 54.9%
5.46 and < 5.00: pIC50 (curve of compound)

CC[C@@]1(O)C(=O)OCc2c1cc1n(c2=O)Cc2cc3c(CN(C)C)c(O)ccc3nc2-1
< 6.50: pIC50 (curve of compound)
inactive: viability, T/C (compound 0.000999 µM) 95.3% and 92.3% and 106% | viability, T/C (compound 0.00316 µM) 105% and 96.2% and 94.6% | viability, T/C (compound 0.00999 µM) 96% and 97.9% and 95.6% | viability, T/C (compound 0.0316 µM) 84.6% and 98% and 89.7% | viability, T/C (compound 0.0999 µM) 88.7% and 87.6% and 101% | viability, T/C (compound 0.316 µM) 79% and 81.7% and 75.3%

CCc1c2c(nc3ccc(O)cc13)-c1cc3c(c(=O)n1C2)COC(=O)[C@]3(O)CC
inactive: viability, T/C (compound 0.000999 µM) 92.9% and 101% and 105% | viability, T/C (compound 0.00316 µM) 88.5% and 90.5% and 87.7% | viability, T/C (compound 0.00999 µM) 78.4% and 78.2% and 84.3% | viability, T/C (compound 0.0316 µM) 71.1% and 81.8% and 69.5% | viability, T/C (compound 0.0999 µM) 61.7% and 59.3% and 49.4% | viability, T/C (compound 0.316 µM) 47.6% and 44.7% and 36.1%
6.57 and 6.64 and 6.94: pIC50 (curve of compound)

CN(C)c1ccc(Nc2c3ccc(NC(=O)CCN4CCCC4)cc3nc3cc(NC(=O)CCN4CCCC4)ccc23)cc1
< 5.00: pIC50 (compound alone, run of 04/22/2024)
inactive: viability, T/C (compound 0.0316 µM) 103% [middle of 12 runs] | viability, T/C (compound 0.1 µM) 99.9% [middle of 12 runs] | viability, T/C (compound 0.316 µM) 101% [middle of 12 runs] | viability, T/C (compound 3.16 µM) 104% [middle of 12 runs] | viability, T/C (compound 10 µM) 101% [middle of 12 runs]
